Experimental data taken from paper PMC6710338, “Turning a Collagenesis-Inducing Peptide Into a Potent Antibacterial and Antibiofilm Agent Against Multidrug-Resistant Gram-Negative Bacteria” (Frontiers in Microbiology, 2019).
In brackets after ≈: the same amount, converted by molar mass. Several values for one entry are separate records, joined by “and”; a condition that tells them apart may be missing. Equal values may be shown once. Read-outs that look alike come from different tables or passages of the source. Peptide text beside a SMILES is read from it.

Assays:
[1] = system: MDR isolates of P. aeruginosa, E. coli and K. pneumoniae; test: Minimum bactericidal concentration (MBC); type: cell-based; details: all MDR isolates tested
Procedure: (§1) The minimum inhibitory concentration (MIC) of synthetic peptides was determined using the broth microdilution method in cation-adjusted Mueller-Hinton broth (MHB2 – Sigma-Aldrich, St. Louis, MO, United States), according to the recommendations of the Clinical and Laboratory Standards Institute ([CLSI, 2012]), against four reference strains, namely, P. aeruginosa ATCC 27853, E. coli ATCC 25922, S. aureus ATCC 25923 and Enterococcus faecalis ATCC 29212. MIC values of peptide 3.1-PP4 were also determined against MDR clinical isolates of P. aeruginosa (PA002, PA004, Pa3, Pa4), E. coli (Ec1, Ec2, EC001, EC002, EC003) and K. pneumoniae (KP004, KP007, KP010). The peptides were tested in the concentration range of 1–1024 μg/mL. The minimum bactericidal concentration (MBC) was determined as previously reported ([Bessa et al., 2018]).
(§2) In view of the above results, peptide conjugate 3.1-PP4 was selected for further investigation of its activity against MDR isolates of three Gram-negative bacterial species, namely, P. aeruginosa (four isolates), E. coli (five isolates), and K. pneumoniae (four isolates), whose antimicrobial resistance patterns are provided in the Supplementary Table S1. […]

[2] = system: MDR clinical isolates of E. coli (Ec1, Ec2, EC001, EC002, EC003); type: cell-based, Escherichia coli; details: MHB2
Procedure: as §1
In view of the above results, peptide conjugate 3.1-PP4 was selected for further investigation of its activity against MDR isolates of three Gram-negative bacterial species, namely, P. aeruginosa (four isolates), E. coli (five isolates), and K. pneumoniae (four isolates), whose antimicrobial resistance patterns are provided in the Supplementary Table S1. MDR isolates of K. pneumoniae were included in this analysis given (i) the high prevalence of K. pneumoniae in HAI ([Zheng et al., 2017]), (ii) that K. pneumoniae isolates used are carbanepem-resistant strains of an Enterobacteriaceae species, meaning that they are class 1 priority pathogens for the research and development of new antibiotics according to the WHO ([WHO, 2017]), and (iii) K. pneumoniae bacteria are usually better biofilm producers than the other Enterobacteriaceae species used, E. coli ([Reisner et al., 2006]). MIC values obtained are shown in Table 3, and confirm peptide’s 3.1-PP4 potent action against Gram-negative bacteria, including MDR isolates, with a selectivity index (SI), i.e., ratio of IC50 values for mammalian vs. bacterial cells, ranging from ca. 9–69. In fact, for P. aeruginosa and E. coli, MIC against MDR isolates were in the same range, or below, of those previously found for ATCC reference strains (Table 2). For K. pneumoniae, MIC values ranged between 1 and 4 μM, which is remarkable.

[3] = system: multidrug-resistant isolates of Klebsiella pneumoniae, E. coli, and P. aeruginosa; type: cell-based
Procedure: as §1, §2

[4] = system: biofilms of PA004, KP007, and KP010; test: CLSM imaging of biofilms after Live/Dead staining; type: cell-based, P. aeruginosa and K. pneumoniae; details: qualitative
Procedure: For confocal laser scanning microscopy (CLSM) imaging, 24 h biofilms of PA004, KP007, and KP010 were formed in μ-Dish (35 mm, high), ibidi Polymer Coverslips (ibidi GmbH, Planegg-Martinsried, Germany) as previously described by [Bessa et al. (2018)]. Biofilms were non-treated – controls (only medium was used) or treated with 3.1-PP4 at a concentration of 20 × MIC. After 24 h, all biofilms were stained using the LIVE/DEAD^TM BacLight^TM bacterial viability kit (Molecular Probes, Thermo Fisher Scientific, MA, United States). Biofilms were visualized under a laser scanning confocal system Leica TCS SP5 II (Leica Microsystems, Germany), equipped with an inverted (i) microscope Leica DMI6000-CS, using a HC PL APO CS 63x/1.30 Glycerine 21°C objective and the lasers Diode 405 nm and DPSS561 561 nm, and (ii) the LAS AF software.
To gain further insight into the peptide’s effects on the bacterial biofilms, a Live/Dead staining assay using CLSM was carried out, where untreated and peptide-treated biofilms delivered the images depicted in Figure 2. […] Noteworthy, only bacterial cells, not biofilm matrix, are stained when the Live/Dead staining is used, which means that only cells within the biofilm are observed.

[5] = system: MDR K. pneumoniae isolates (KP004, KP007, KP010); test: Inhibition of biofilm formation, crystal violet assay; type: cell-based, Klebsiella pneumoniae; details: in TSB
Procedure: The ability of peptide 3.1-PP4 to inhibit the biofilm formation by three P. aeruginosa isolates (PA002, PA004, Pa3) and by three K. pneumoniae isolates (KP004, KP007 and KP010) was assessed at concentrations equal to the MIC, 1/2 × MIC and 1/4 × MIC in tryptic soy broth – (TSB – Liofilchem s.r.l., Italy) using the crystal violet assay as reported by [Gomes et al. (2014)]. Two independent experiments were performed in triplicate.
Some of the MDR isolates of P. aeruginosa and K. pneumoniae were randomly selected to form biofilms in the absence (controls) and presence (at MIC, 1/2 × MIC and 1/4 × MIC) of the peptide 3.1-PP4. In this assay, the test compounds were used at sub-inhibitory concentrations, since if they had been present at the MIC or higher concentrations, bacteria would be killed before starting to produce the biofilms.
FIGURE 1 Biofilm biomass quantitation of biofilms formed in the presence of peptide 3.1-PP4. Biofilms of three MDR P. aeruginosa (PA002, Pa3, and PA004) and of three MDR K. pneumoniae (KP004, KP007, and KP010) were formed in the presence of the peptide at three different concentrations, MIC, 1/2 × MIC, and 1/4 × MIC. Control biofilms were grown in absence of the peptide. Two independent experiments were performed in triplicate. Error bars represent SD. […]

## CC(C)C[C@H](NC(=O)[C@H](Cc1c[nH]c2ccccc12)NC(=O)[C@H](CCCCN)NC(=O)[C@H](CC(C)C)NC(=O)[C@H](CC(C)C)NC(=O)[C@H](CCCCN)NC(=O)[C@@H](N)CCCCN)C(=O)N[C@@H](CC(C)C)C(=O)N[C@@H](CCCCN)C(=O)N[C@@H](CC(C)C)C(=O)N[C@@H](CC(C)C)C(=O)N[C@@H](CCCCN)C(=O)N[C@H](C(=O)N[C@H](C(=O)N[C@@H](CCCCN)C(=O)N[C@@H](CO)C(N)=O)[C@@H](C)O)[C@@H](C)O [Peptide 3.1-PP4] (H-KKLLKWLLKLLKTTKS-NH2; N-terminus assumed)
[1]
  minimal bactericidal concentrations (MBC): match the MIC in all cases
[2]; MDR E. coli isolate EC001
  MIC: 2 μg/mL and 1 μM
[2]; MDR E. coli isolate EC002
  MIC: 2 μg/mL and 1 μM
[2]; MDR E. coli isolate EC003
  MIC: 1 µg/mL (≈ 0.515 µM)
[2]; MDR E. coli isolate Ec1
  MIC: 4 µg/mL (≈ 2.06 µM)
[2]; MDR E. coli isolate Ec2
  MIC: 2 μg/mL and 1 μM
[3]
  MIC values against multidrug-resistant isolates: 0.5 to 4.1 µM
[4]; 24 h biofilms of PA004, KP007, KP010 treated 24 h at 20 × MIC, vs untreated
  ratio of red- to green-stained bacterial cells (Live/Dead, CLSM): consistently higher in peptide-treated
[4]; isolate KP010, 24 h biofilm treated 24 h at 20 × MIC
  impact on biofilm (Live/Dead, CLSM): significant biofilm disaggregation
[5]; peptide at MIC, K. pneumoniae isolates
  biofilm formation (crystal violet absorbance at 595 nm): no biofilm was actually produced
[5]; peptide at sub-inhibitory concentrations (1/2 and 1/4 of the MIC), vs control biofilm
  biofilm formation (crystal violet absorbance at 595 nm): able to reduce the biofilm formed
